Experimental data as given in ChEMBL document CHEMBL1629455, “Discovery of a novel class of biphenyl pyrazole sodium channel blockers for treatment of neuropathic pain” (Bioorg Med Chem Lett, 2010).

Legend:
Rattus norvegicus [1] = assay: Antiallodynic activity in rat spinal nerve ligation model of neuropathic pain assessed as reversal of allodynia at 10 mg/kg, po after 4 hrs; type: functional; conditions: Rattus norvegicus, Spinal nerve, 4 h
[2] = AUC in dog at 20 mg/kg, po; type: ADME, organism-based, Canis lupus familiaris; set-up: dose 20 mg/kg, route oral; conditions: plasma
[3] = AUC in rat at 3 mg/kg, po; type: ADME, organism-based; set-up: dose 3 mg/kg, route oral; conditions: plasma
Mus musculus [4] = assay: Neurotoxicity in conscious mouse assessed as effect on motor activity at 100 mg/kg after 2 hrs; type: toxicity, organism-based; set-up: dose 100 mg/kg; conditions: in vivo
[5] = Metabolic stability in rat liver microsomes assessed as compound remaining after 60 mins in presence of 10 uM substrate; type: ADME, Microsome; conditions: read-out: Stability
Canis familiaris [6] = assay: Clearance in dog plasma at 0.5 mg/kg, iv and 2 mg/kg, po; type: ADME, organism-based, Canis lupus familiaris; conditions: in vivo
Rattus norvegicus [7] = assay: Antiallodynic activity in rat spinal nerve ligation model of neuropathic pain assessed as reversal of allodynia at 3 mg/kg, po after 4 hrs; type: functional
[8] = Bioavailability in rat at 1 mg/kg, iv and 3 mg/kg, po; type: ADME, organism-based; conditions: in vivo
[9] = Cmax in rat at 1 mg/kg, iv and 3 mg/kg, po; type: ADME, organism-based; conditions: in vivo
Canis familiaris [10] = assay: Cardiotoxicity in anesthetized dog assessed as effect on QRS interval at 10 mg/kg, iv; type: toxicity, organism-based, Canis lupus familiaris; set-up: dose 10 mg/kg, route intravenous; conditions: in vivo
Mus musculus [11] = assay: Neurotoxicity in conscious mouse assessed as effect on CNS function at 100 mg/kg after 2 hrs; type: toxicity, organism-based, Central nervous system; set-up: dose 100 mg/kg; conditions: in vivo
Mus musculus [12] = assay: Neurotoxicity in conscious mouse assessed as effect on behavior at 100 mg/kg after 24 hrs; type: toxicity, organism-based; set-up: dose 100 mg/kg; conditions: in vivo
Rattus norvegicus [13] = assay: Neurotoxicity in rat assessed as effect on motor coordination at 30 mg/kg, po by rotarod test (reference value: 18%); type: toxicity, organism-based; set-up: dose 30 mg/kg, route oral; conditions: in vivo
[14] = Half life in dog at 0.5 mg/kg, iv and 2 mg/kg, po; type: ADME, organism-based, Canis lupus familiaris; conditions: in vivo
Cytochrome P450 2D6 = Cytochrome P450 2D6 (Homo sapiens, UniProt P10635); assay: Inhibition of CYP2D6; type: ADME
Rattus norvegicus [15] = assay: Antiallodynic activity in rat spinal nerve ligation model of neuropathic pain assessed as reversal of allodynia at 30 mg/kg, po after 4 hrs; type: functional
[16] = Bioavailability in dog at 0.5 mg/kg, iv and 2 mg/kg, po; type: ADME, organism-based, Canis lupus familiaris; conditions: in vivo
Plasma = assay: Plasma concentration in dog at 10 mg/kg, iv; type: ADME, organism-based, Canis lupus familiaris; set-up: dose 10 mg/kg, route intravenous; conditions: in vivo

Chain of Cytochrome P450 2D6 (P10635 whole entry): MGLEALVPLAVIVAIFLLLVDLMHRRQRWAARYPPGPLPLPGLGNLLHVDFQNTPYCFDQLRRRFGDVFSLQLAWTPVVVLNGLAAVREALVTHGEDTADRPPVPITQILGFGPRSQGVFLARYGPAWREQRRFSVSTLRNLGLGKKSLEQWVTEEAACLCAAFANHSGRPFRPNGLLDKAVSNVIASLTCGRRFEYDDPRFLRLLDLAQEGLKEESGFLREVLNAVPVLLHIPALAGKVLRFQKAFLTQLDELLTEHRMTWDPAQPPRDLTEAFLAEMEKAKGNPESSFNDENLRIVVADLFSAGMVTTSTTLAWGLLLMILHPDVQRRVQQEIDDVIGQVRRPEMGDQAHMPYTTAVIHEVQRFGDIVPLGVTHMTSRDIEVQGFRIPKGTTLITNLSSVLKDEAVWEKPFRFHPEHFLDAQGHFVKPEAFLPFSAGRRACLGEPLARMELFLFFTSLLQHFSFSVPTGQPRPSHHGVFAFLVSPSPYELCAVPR

Work on `NC(=O)c1cc(C(N)=O)n(-c2cccc(-c3cc(C(F)(F)F)ccc3C(F)(F)F)c2)n1` yielded an inhibition in vivo at 10 mg/kg (Rattus norvegicus [1]) of 34%, an AUC [2] of 372 µM·h and an AUC [3] of 5.6 µM·h. The Activity (Mus musculus [4]) was “Non-toxic”, the remaining at 1 h, 10 uM [5] was greater than 99% and the clearance (Canis familiaris [6]) was 0.5 mL/min/kg. The inhibition in vivo at 3 mg/kg (Rattus norvegicus [7]) was 30%, the bioavailability [8] was 60% and the Cmax [9] was 2.64 µM. For the same molecule, the Activity (Canis familiaris [10]) was “Non-toxic”, the Activity (Mus musculus [11]) was “Non-toxic” and the Activity (Mus musculus [12]) was “Non-toxic”. For the same molecule, the Activity (Rattus norvegicus [13]) was -2%, the half-life [14] was 12 h and the IC50 (Cytochrome P450 2D6) was greater than 100 µM. It also gave an inhibition in vivo at 30 mg/kg (Rattus norvegicus [15]) of 59%, a bioavailability [16] of 33% and a concentration (Plasma) of 78.2 µM.
